Earlier results in patent US20260102333A1, “TOPICAL DELIVERY OF ANTIFUNGAL AGENTS FOR TREATING FUNGAL INFECTIONS” (LYOTROPIC DELIVERY SYSTEMS LTD., priority 2022, published 2026).
Structures can show the parent of a compound that is named as a salt.

How the values were obtained:
[1] = tested on: Trichophyton mentagrophytes
[2] = tested on: Trichophyton rubrum

## CN(C/C=C/C#CC(C)(C)C)Cc1cccc2ccccc12 [TRB, terbinafine hydrochloride]
[1]
  MIC50 (minimum inhibitory concentration required for 50% inhibition): 0.03 to 0.5 µg/mL
[2]
  MIC50 (minimum inhibitory concentration required for 50% inhibition): 0.03 to 0.5 µg/mL
